For three compounds, TI, EC50 and IC50 results are on record in ChEMBL document CHEMBL1145744, “Anti-HIV agents. Part 55: 3'R,4'R-Di-(O)-(-)-camphanoyl-2',2'-dimethyldihydropyrano[2,3-f]chromone (DCP), a novel anti-HIV agent” (Bioorg Med Chem Lett, 2003).

For orientation: EC50 means the concentration needed to bring the measured effect to its halfway point. A higher EC50 goes with a need for much substance. For orientation: IC50 means the concentration that inhibits the measured activity by half. Low values mean inhibition by little substance, high ones a need for much substance.

A short description of experiment [1]: In vitro therapeutic index was measured from IC50 to EC50 towards HIV-1 replication in cell growth in H9 lymphocytes. In kind it is functional.
Another experiment has as its system H9. Kind of experiment: Concentration that inhibits HIV-1 replication in cell growth in H9 lymphocytes. It is filed as functional, cell-based. As to conditions: Homo sapiens.

Each structure is given as a SMILES string.

As to `CC1(C)Oc2ccc3ccc(=O)oc3c2[C@@H](OC(=O)C23CCC(C)(C(=O)O2)C3(C)C)[C@H]1OC(=O)C12CCC(C)(C(=O)O1)C2(C)C` (stereo partly specified), in experiment [1], the TI turned out to be 136719.

In the experiment with H9, `CC1(C)Oc2ccc3c(=O)ccoc3c2[C@@H](OC(=O)C23CCC(C)(C(=O)O2)C3(C)C)[C@H]1OC(=O)C12CCC(C)(C(=O)O1)C2(C)C` (stereo partly specified) gave an EC50 of 0.000678 µM and an IC50 of 9.83 µM. The same compound returned a TI in experiment [1] of 14500.

In the experiment on H9, `Cc1cn([C@H]2C[C@H](N=[N+]=[N-])[C@@H](CO)O2)c(=O)[nH]c1=O` [ZIDOVUDINE] registered a 50% inhibitory concentration (IC50) of 500 µM. The TI in experiment [1] is on record as 11200.
